The test system of data set [1] is HBV. Briefly: Antiviral efficacy in AML12HBV10 cells, HBV DNA by dot-blot hybridization. It counts as cell-based, Hepatitis B virus (HBV). As for the experimental part:
The antiviral efficacy of the compounds of the disclosure, as presented in Tables 5, 6, 7, 8 and 9, were determined in AML12HBV10 cells. AML12HBV10 is an immortalized murine hepatocyte (AML12)-derived stable cell line that supports robust HBV replication in a tetracycline inducible manner (Xu et al.). The cells were seeded into 96 well plates at a density of 2×10^4 cells per well and cultured in DMEM/F12 media with 10% fetal bovine serum in the absence of tetracycline to allow pgRNA transcription and HBV DNA replication. One day after seeding, cells were left untreated or treated with a serial dilution of testing compounds, ranging from 50 μM to 0.39 μM, for 48 hours. Cells were then lysed by adding into each well of 100 μl lysis buffer containing 10 mM Tris-HCl (pH 7.6), 1 mM EDTA, 100 mM NaCl and 1% NP-40 and incubated at 37° C. for 30 minutes. Half amount (50 μl) of cell lysate from each well was combined with equal volume of denaturing solution containing 0.5N NaOH and 1.5M NaCl. After 5 minute incubation, 100 μl of neutralization solution (IM Tris-HCl, pH 7.4, 1.5M NaCl) was added into each well. The denatured cell lysates (totally 200 μl) were applied onto Nylon membrane using 96-well dot-blot manifold (Biorad). HBV DNA in the cell lysates were determined by dot-blot hybridization with alpha-^32P-UTP-labelled riboprobe specific for HBV minus strand DNA. The antiviral efficacy of a compound of the disclosure was expressed as the concentration that reduces the amount of HBV DNA by 50% (EC50).

A further data set has as its system AML12HBV10 cells. Kind of data set: Cytotoxicity in AML12HBV10 cells, MTT assay. It counts as cell-based, murine. As for the experimental part:
(§1) Determination of cytotoxicity of compounds of the disclosure in AML12HBV10 cells: To determine the cytotoxicity of the compounds, AML12HBV10 cells were seeded into 96-well plates at a density of 2×10^4 cells per well and cultured in DMEM/F12 media with 10% fetal bovine serum in the absence of tetracycline to allow pgRNA transcription and HBV DNA replication. One day after seeding, cells were left untreated or treated with a serial dilution of testing compounds, ranging from 50 μM to 0.39 μM, for 48 hours. The cell viability was measured by a MTT assay, following procedure provided by the manufacturer (Promega). The cytotoxicity of a compound was expressed as the concentration of compound that reduces the viability of the cells by 50% (CC50).
Background: Formazan colour is commonly taken as a measure of viable cells.

Data set [2] can be described thus: Cytotoxicity in AML12HBV10 cells, MTT assay. It counts as cell-based, murine. The settings on record: mouse; AML12HBV10 cells, 48 hours, MTT; read-out: CC50 (cellular toxicity). As for the experimental part: as §1
The test system of a further data set is HBV capsids. Briefly: Viral capsids by particle gel assay. It counts as cell-based, Hepatitis B virus (HBV). The settings on record: AML12HBV10 cells, 2 days, FIG. 3 panel B; Bay41-4109 5 μM, AT-61 25 μM. As for the experimental part:
(§2) To obtain mechanistic insight of the compounds of present invention against HBV, AML12HBV10 cells cultured in the 12-well plates were treated with a series of concentrations of DVR-1, DVR-56 or DVR-23 for two days in the absence of tetracycline (Guo et al., 2007). As positive controls, the cells were also treated with Bay41-4109 (5 μM) or AT-61 (25 μM), the known HBV nucleocapsid assembly effectors that either bind to HBV core protein dimmer to misdirect its interaction and prevent capsid formation (Bay41-4109) (Deres et al., 2003: Stray and Zlotnick, 2006), or interact with a core assembly intermediate and promote the formation of empty capsids (AT-61) (Feld et al., 2007; Katen et al., King et al., 1998). The amounts of intracellular viral mRNA, encapsidated pgRNA, capsids and nucleocapsid-associated HBV DNA were analyzed with the methods detailed below.
Procedures of viral capsids and nucleocapsid-associated DNA analysis: HepDES19 cells were lysed by addition of 300 μl buffer containing 10 mM Tris-HCl (pH7.6), 100 mM NaCl, 1 mM EDTA and 0.1% NP-40 to each well of 12-well plate. […] HBV capsids were detected by probing the membrane with an antibody against HBV core protein (DAKO). […] The viral DNA was detected by hybridization with a α-^32P-UTP (800 Ci/mmol, Perkin Elmer) labeled minus strand specific full-length HBV riboprobe (Xu et al.).

In data set [3] the test system is capsid-associated HBV DNA. Kind of data set: Nucleocapsid-associated HBV DNA and DNA replication intermediates (particle gel hybridization, Southern blot). It counts as cell-based, Hepatitis B virus (HBV). The settings on record: AML12HBV10 cells, 2 days, FIG. 3 panels D and E; Bay41-4109 5 μM, AT-61 25 μM. As for the experimental part: as §2
Procedures of viral capsids and nucleocapsid-associated DNA analysis: HepDES19 cells were lysed by addition of 300 μl buffer containing 10 mM Tris-HCl (pH7.6), 100 mM NaCl, 1 mM EDTA and 0.1% NP-40 to each well of 12-well plate. […] HBV capsids were detected by probing the membrane with an antibody against HBV core protein (DAKO). […] The viral DNA was detected by hybridization with a α-^32P-UTP (800 Ci/mmol, Perkin Elmer) labeled minus strand specific full-length HBV riboprobe (Xu et al.). […]

Another data set has as its system encapsidated pgRNA. Kind of data set: Encapsidated pgRNA by Northern blot in AML12HBV10 cells. It counts as cell-based, Hepatitis B virus (HBV). The settings on record: 2 days, FIG. 3 panel C, Bay41-4109 5 μM, AT-61 25 μM. As for the experimental part:
as §2
Determination of encapsidated pgRNA: AML12HBV10 cells were lysed by addition of 600 μl of lysis buffer (50 mM Tris-HCl [pH 7.5], 1 mM EDTA, 150 mM NaCl, 1% NP-40) into each well of 12-well plates. The nuclei were removed by centrifugation at 5,000 g for 10 minutes. One-half of the sample was mixed with 6 U of micrococcal nuclease (Pharmacia) and 15 μl of 100 mM CaCl2 and incubated for 15 minutes at 37° C. to digest free nucleic acids. The reaction was stopped with 6 μl of 0.5 M EDTA, and capsids were precipitated by adding 125 μl of 35% polyethylene glycol 8000 in 1.75 M NaCl to the reaction and incubating in ice for 30 minutes, followed by centrifugation at 6,000 g for 10 minutes at 4° C. Pellets were re-suspended in 50 μl of TNE buffer (10 mM Tris-HCl [pH 8], 100 mM NaCl, 1 mM EDTA), pgRNA was extracted by the addition of 1 ml of Trizol reagent. The encapsidated pgRNA were electrophoresed through a 2.2 M formaldehyde-1% agarose gel, transferred to a nylon membrane, and immobilized by UV cross-linking (Stratagene). Hybridization was performed with an alpha-^32P-UTP labeled riboprobe specific for plus strand of HBV genome.

The nature of data set [4]: Cytotoxicity in HepDES19 cells, MTT assay. It counts as cell-based. The conditions noted are these: human, Table 10, HepDES19 cells, unit inferred. As for the experimental part:
as §1, with “human hepatoma-derived cell lines, HepDES19” for “AML12HBV10 cells: To determine the cytotoxicity of the compounds, AML12HBV10”, “2×10^4” left out, “tetracycline.” for “tetracycline to allow pgRNA transcription and HBV DNA replication.”, “6 days.” for “48 hours.”

Data set [5] relates to HBV. Briefly: Antiviral activity in HepDES19 cells, core-associated HBV DNA by Southern blot hybridization. It counts as cell-based. The conditions noted are these: Hepatitis B virus, 144 h, Table 10, HepDES19 cells, 6 days, unit inferred. As for the experimental part: FIG. 2 and Table 10, in human hepatoma-derived cell lines: To further confirm the antiviral activity of the compounds of the disclosure against HBV in human hepatocyte-derived cells, HepDES19 cells, a human hepatoma cell line supporting HBV replication in a tetracycline inducible manner (Guo et al., 2007), seeded into 12-well plates at a density of 5×10^5 cells per well and cultured in DMEM/F12 media with 10% fetal bovine serum and 1 μg/ml tetracycline. Two days after seeding, the cells were mock-treated or treated with a serial dilution of compounds of the disclosure, ranging from 10 μM to 0.018 μM, for 6 days in the absence of tetracycline. Upon the completion of treatment, cells were lysed by adding into each well of the 12-well plates 0.5 ml of lysis buffer containing 10 mM Tris-HCl (pH 8.0), 1 mM EDTA, 1% NP40 and 2% sucrose and incubating at 37° C. for 10 minutes. Cell debris and nuclei were removed by centrifugation and the supernatant was mixed with 130 μl of 35% polyethylene glycol (PEG) 8000 containing 1.5 M NaCl. After 1 hour incubation in ice, viral nucleocapsids were pelleted by centrifugation at 6,000×g for 5 min at 4° C., followed by 1 hour digestion at 37° C. in 400 μl of digestion buffer containing 0.5 mg/ml pronase (Calbiochem), 0.5% SDS, 150 mM NaCl, 25 mM Tris-HCl (pH 8.0) and 10 mM EDTA. The digestion mixture was extracted twice with phenol and DNA was precipitated with ethanol, dissolved in TE buffer (10 mM Tris-HCl, pH 8.0; 0.1 mM EDTA). One half of the DNA sample from each well was resolved by electrophoresis into a 1.5% agarose gel. The gel was then subjected to denaturation in a solution containing 0.5 M NaOH and 1.5 M NaCl, followed by neutralization in a buffer containing 1 M Tris-HCl (pH7.4) and 1.5 M NaCl. DNA was then blotted onto Hybond-XL membrane (GE Health care) in 20×SSC buffer. The amounts of cytoplasmic HBV core-associated HBV DNA were determined by Southern blot hybridization and the antiviral efficacy of a compound was expressed as its concentration that reduce the amount of HBV DNA by 50% (EC50) or 90% (EC90).

Where [6] appears, read: AML12HBV10 cells, 48 hours, concentration reducing HBV DNA by 50%, read-out: EC50 (antiviral activity by dot blot hybridization).
Where [7] appears, read: AML12HBV10 cells, 48 hours, MTT, read-out: CC50 (cellular toxicity).
The mark [8] stands for this setting: Hepatitis B virus, AML12HBV10 cells, 48 hours, concentration reducing HBV DNA by 50%, read-out: EC50 (antiviral activity by dot blot hybridization).

pEC50: −log10 of the molar value. Like-named read-outs stand apart in the source and are kept apart here.

What is called pEC50 is −log10 of the EC50, conventionally taken in molar units. The CC50 is the concentration giving 50% cytotoxicity. As usually defined, the EC90 is the concentration needed for an effect of 90%. A high value points to a need for much substance.

In the case of `C=CCNS(=O)(=O)c1ccc(F)c(C(=O)Nc2ccc(F)c(F)c2)c1` [DVR-34], the pEC50 in the data set with HBV [1] (setting [6]) was 5.40. For the same molecule, the CC50 in the data set with AML12HBV10 cells (setting [7]) was more than 50 µM.

Regarding `NS(=O)(=O)c1cccc(C(=O)Nc2ccccc2)c1` [DVR-22], the pEC50 in the data set on HBV [1] (setting [6]) is 5.10. Besides, in the data set with AML12HBV10 cells (setting [7]), the CC50 was more than 50 µM.

`O=C(NCc1ccccc1)c1ccc2c(c1)NC(=O)c1ccccc1S2(=O)=O`: the pEC50 in the data set with HBV [1] (setting [8]) is 5.10. For the same molecule, in data set [2], the CC50 at 48 h was more than 50 µM.

Turning to `COC(=O)C1=C(C)NC(c2ncc(F)cc2F)=N[C@H]1c1ccc(F)cc1Cl` [Bay41-4109], in the data set on HBV capsids, the capsid formation result was “completely abolished”. Also, the “capsid-associated HBV DNA / DNA synthesis” value in data set [3] is “completely abolished”. In addition, in the data set with encapsidated pgRNA, the “level of encapsidated pgRNA” value is “completely abolished”.

Take `NS(=O)(=O)c1cc(C(=O)Nc2cc(C(F)(F)F)ccc2Cl)ccc1F` [DVR-21]: the pEC50 with HBV [1] (setting [6]) is 5.17. Moreover, in the data set with AML12HBV10 cells (setting [7]), the CC50 was more than 50 µM.

For `Cc1cccc(NC(=O)c2cc(S(N)(=O)=O)ccc2Cl)c1` [DVR-16], in the data set with HBV [1] (setting [6]), the pEC50 was 5.22. In addition, the CC50 with AML12HBV10 cells (setting [7]) was more than 50 µM.

Consider `NS(=O)(=O)c1cc(C(=O)Nc2cccc(C(F)(F)F)c2)ccc1F` [DVR-19], for which, in the data set with HBV [1] (setting [6]), the pEC50 is 5.05. Besides, the CC50 in the data set on AML12HBV10 cells (setting [7]) is more than 50 µM.

Turning to `O=C(Nc1ccc(F)c(F)c1)c1cc(S(=O)(=O)NC2CCCCC2)ccc1F` [DVR-45, 5-cyclohexylsulfamoyl-N-(3,4-difluoro-phenyl)-2-fluoro-benzamide], the CC50 at 6 days in data set [4] was more than 50 µM. Moreover, the pEC50 was 6.10 in the data set with HBV [1] (setting [8]); 6.10 with HBV [1] (Hepatitis B virus, Table 10, AML12HBV10 cells, unit inferred, read-out: AML12HBV10 EC50); 6.32 in the data set with HBV [5] (Southern blot). This molecule also gave an EC90 with HBV [5] (HBV DNA reduced by 90%) of 2.11 µM. The CC50 at 48 h in data set [2] was more than 50 µM. In addition, the CC50 in the data set with AML12HBV10 cells (Table 10, AML12HBV10 cells, unit inferred, read-out: AML12HBV10 CC50) is more than 50 µM.

As for `COc1ccc(CCNS(=O)(=O)c2ccc(F)c(C(=O)Nc3ccc(Cl)cc3)c2)cc1OC` [DVR-91], the pEC50 in the data set on HBV [1] (setting [6]) is 4.77. The CC50 in the data set on AML12HBV10 cells (setting [7]) was more than 50 µM.

For the origin of these results see US9758477B2, “Sulfamoylbenzamide derivatives as antiviral agents against HBV infection” (priority 2011, dated 2017).
